Calls of active or inactive are those of the source.
Key:
[1] = target: T1, Runt-related transcription factor 1/Core-binding factor subunit beta (Homo sapiens, UniProt Q01196+Q13951); test: inhibitors of RUNX1 Runt–CBFb-SMMHC binding, biochemical, TR-FRET (AID 1438); assay type: protein assay
[2] = target: T1, Runt-related transcription factor 1/Core-binding factor subunit beta; test: inhibitors of RUNX1 Runt–CBFb-SMMHC binding, primary screen, biochemical, FRET, Cerulean-Runt, Venus-CBFb-SMMHC, uHTS (AID 1434); assay type: protein assay;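 further: partner is the CBFb-SMMHC leukemia fusion protein rather than wild-type CBFb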
[3] = target: DNA dC->dU-editing enzyme APOBEC-3A (Homo sapiens, UniProt P31941); test: Dose Response confirmation of small molecule APOBEC3A DNA Deaminase Inhibitors via a fluorescence-based single-stranded DNA deaminase assay. [Related pubchem assays (depositor defined):AID493011, AID493024]; assay type: functional
DNA dC->dU-editing enzyme APOBEC-3A, sequence (P31941 whole entry): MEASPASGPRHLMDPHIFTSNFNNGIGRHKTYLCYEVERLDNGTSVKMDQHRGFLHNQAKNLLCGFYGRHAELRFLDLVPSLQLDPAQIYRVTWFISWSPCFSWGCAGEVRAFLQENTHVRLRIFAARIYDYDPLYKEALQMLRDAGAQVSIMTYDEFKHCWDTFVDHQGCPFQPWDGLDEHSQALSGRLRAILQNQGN

[4] = target: DNA dC->dU-editing enzyme APOBEC-3G (Homo sapiens, UniProt Q9HC16); assay type: functional;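 further: Dose-response counterscreen measuring inhibition of APOBEC3G DNA deaminase activity, run while confirming APOBEC3A inhibitors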
DNA dC->dU-editing enzyme APOBEC-3G, sequence (Q9HC16 whole entry): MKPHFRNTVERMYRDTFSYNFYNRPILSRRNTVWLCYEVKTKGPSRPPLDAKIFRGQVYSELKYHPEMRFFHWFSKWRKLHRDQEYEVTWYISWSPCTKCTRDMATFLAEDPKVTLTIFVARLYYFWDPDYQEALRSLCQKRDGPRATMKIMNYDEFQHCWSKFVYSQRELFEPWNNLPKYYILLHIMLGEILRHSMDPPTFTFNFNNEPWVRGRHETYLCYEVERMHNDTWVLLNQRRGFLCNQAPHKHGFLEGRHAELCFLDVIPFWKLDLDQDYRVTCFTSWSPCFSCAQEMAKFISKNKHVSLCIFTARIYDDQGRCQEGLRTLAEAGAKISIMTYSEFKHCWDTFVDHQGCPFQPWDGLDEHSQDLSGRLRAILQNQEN

[5] = target: Peroxisome proliferator-activated receptor gamma/Nuclear receptor coactivator 1 (Homo sapiens, UniProt P37231); test: (§1) TR-FRET dose response biochemical High Throughput Screening assay for agonists of the steroid receptor coactivator 1 (SRC-1) recruitment by the peroxisome proliferator-activated receptor gamma (PPAR gamma): non-selective agonists. [Related pubchem assays (depositor defined):AID1300, AID1808, AID504735, AID631]; assay type: protein assay
[6] = target: Peroxisome proliferator-activated receptor gamma/Nuclear receptor coactivator 3 (Homo sapiens, UniProt P37231); test: as §1, with “3 (SRC-3)” for “1 (SRC-1)”, “assays: 1301 (Confirmation screen.), 1048 (Primary screen.)]” for “assays (depositor defined):AID1300, AID1808, AID504735, AID631]”; assay type: functional
Peroxisome proliferator-activated receptor gamma/Nuclear receptor coactivator 3, sequence (P37231 whole entry): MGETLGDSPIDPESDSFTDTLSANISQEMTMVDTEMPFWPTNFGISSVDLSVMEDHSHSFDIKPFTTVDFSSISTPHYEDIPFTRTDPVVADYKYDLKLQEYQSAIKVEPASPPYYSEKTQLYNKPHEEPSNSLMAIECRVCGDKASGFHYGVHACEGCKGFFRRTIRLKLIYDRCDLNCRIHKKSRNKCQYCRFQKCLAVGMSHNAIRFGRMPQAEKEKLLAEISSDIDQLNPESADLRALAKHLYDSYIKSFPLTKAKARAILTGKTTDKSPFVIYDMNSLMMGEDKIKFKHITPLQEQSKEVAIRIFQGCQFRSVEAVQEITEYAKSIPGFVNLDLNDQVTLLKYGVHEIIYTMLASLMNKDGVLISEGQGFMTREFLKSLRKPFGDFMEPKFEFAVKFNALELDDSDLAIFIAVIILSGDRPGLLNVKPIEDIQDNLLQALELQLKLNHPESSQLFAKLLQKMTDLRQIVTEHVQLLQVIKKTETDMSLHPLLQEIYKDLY
Peroxisome proliferator-activated receptor gamma/Nuclear receptor coactivator 3, sequence (Q9Y6Q9 whole entry, further chain): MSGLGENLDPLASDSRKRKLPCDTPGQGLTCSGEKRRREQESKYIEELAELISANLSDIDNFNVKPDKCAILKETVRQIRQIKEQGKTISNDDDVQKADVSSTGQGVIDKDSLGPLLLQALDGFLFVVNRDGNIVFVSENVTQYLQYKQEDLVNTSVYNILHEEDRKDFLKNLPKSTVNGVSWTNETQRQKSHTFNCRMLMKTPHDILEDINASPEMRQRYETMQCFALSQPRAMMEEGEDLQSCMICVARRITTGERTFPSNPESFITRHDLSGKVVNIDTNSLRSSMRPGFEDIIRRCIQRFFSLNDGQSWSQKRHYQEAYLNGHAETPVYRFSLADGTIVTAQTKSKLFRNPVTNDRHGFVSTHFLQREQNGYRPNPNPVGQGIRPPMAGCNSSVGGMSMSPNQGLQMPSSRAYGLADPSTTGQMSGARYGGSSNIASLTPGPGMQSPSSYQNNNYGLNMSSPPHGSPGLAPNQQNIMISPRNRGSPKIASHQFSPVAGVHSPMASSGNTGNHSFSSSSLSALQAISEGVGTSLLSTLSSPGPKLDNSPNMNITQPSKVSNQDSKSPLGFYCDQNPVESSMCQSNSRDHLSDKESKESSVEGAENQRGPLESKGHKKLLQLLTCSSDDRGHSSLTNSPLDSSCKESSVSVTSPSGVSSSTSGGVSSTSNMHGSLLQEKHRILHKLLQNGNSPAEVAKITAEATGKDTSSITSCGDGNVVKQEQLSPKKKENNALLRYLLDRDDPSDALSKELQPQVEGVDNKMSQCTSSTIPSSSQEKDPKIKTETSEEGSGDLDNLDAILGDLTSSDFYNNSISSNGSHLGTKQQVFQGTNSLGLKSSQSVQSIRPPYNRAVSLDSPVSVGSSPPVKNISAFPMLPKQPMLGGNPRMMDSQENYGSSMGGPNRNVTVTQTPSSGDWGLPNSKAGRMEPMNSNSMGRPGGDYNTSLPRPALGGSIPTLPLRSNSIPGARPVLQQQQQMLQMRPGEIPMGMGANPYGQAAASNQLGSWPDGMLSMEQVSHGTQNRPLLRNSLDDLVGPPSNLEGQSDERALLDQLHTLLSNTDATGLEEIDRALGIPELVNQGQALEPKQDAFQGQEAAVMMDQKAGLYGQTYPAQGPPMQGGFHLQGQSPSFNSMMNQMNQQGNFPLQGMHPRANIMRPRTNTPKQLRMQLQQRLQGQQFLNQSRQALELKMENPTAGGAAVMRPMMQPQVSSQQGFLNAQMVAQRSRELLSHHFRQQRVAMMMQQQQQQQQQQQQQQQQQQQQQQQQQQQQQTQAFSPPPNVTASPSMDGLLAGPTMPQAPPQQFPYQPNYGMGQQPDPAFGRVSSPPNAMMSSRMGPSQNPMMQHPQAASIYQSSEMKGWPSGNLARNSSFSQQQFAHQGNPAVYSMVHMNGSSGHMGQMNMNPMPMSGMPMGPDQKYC

[7] = target: Peroxisome proliferator-activated receptor gamma/Nuclear receptor coactivator 2 (Homo sapiens, UniProt P37231); test: TR-FRET dose response biochemical High Throughput Screening assay for agonists of the steroid receptor coactivator 2 (SRC-2) recruitment by the peroxisome proliferator-activated receptor gamma (PPAR gamma): non-selective agonists. [Related pubchem assays: 1297, 1032 ]; assay type: functional
Peroxisome proliferator-activated receptor gamma/Nuclear receptor coactivator 2, sequence (P37231 whole entry): as the sequence (P37231 whole entry) above
Peroxisome proliferator-activated receptor gamma/Nuclear receptor coactivator 2, sequence (Q15596 whole entry, further chain): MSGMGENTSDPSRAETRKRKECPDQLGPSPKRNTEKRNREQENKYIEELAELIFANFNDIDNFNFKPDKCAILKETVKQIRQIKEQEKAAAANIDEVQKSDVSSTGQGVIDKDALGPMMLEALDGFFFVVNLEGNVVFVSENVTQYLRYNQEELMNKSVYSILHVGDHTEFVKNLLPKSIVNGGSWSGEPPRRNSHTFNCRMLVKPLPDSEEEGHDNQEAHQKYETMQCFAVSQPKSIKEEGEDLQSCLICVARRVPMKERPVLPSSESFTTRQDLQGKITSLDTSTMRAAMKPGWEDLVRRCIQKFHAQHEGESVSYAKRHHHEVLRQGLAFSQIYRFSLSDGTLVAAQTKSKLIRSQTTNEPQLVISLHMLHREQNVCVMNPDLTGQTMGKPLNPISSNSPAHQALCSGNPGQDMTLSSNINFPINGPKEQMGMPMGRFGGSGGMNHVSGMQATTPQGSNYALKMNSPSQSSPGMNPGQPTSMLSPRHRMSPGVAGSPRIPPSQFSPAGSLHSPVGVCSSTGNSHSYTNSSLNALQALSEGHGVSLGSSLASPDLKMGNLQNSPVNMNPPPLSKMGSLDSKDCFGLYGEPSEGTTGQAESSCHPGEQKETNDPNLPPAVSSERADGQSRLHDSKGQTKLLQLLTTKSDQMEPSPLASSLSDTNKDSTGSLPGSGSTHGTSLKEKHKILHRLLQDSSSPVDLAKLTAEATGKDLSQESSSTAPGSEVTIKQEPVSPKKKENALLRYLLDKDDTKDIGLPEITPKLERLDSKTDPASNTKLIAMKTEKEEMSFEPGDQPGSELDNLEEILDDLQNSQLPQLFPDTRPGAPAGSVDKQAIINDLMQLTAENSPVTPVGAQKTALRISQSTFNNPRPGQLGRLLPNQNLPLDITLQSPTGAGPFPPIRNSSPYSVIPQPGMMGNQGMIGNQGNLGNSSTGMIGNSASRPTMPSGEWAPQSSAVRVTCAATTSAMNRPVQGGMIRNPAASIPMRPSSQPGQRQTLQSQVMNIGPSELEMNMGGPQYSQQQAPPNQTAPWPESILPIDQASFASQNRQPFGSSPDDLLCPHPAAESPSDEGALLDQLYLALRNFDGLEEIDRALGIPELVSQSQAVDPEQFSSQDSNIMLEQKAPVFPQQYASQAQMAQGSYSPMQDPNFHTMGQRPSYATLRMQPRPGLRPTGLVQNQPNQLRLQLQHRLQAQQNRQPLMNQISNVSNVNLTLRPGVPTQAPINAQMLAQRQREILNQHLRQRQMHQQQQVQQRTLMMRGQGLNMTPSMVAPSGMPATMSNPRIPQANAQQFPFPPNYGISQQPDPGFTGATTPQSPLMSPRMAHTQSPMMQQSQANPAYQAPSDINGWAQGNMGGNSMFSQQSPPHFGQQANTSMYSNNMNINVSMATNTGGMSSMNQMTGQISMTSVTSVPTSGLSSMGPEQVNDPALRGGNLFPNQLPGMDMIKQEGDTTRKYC

cells = assay type: functional
[8] = THP-1 cell cytotoxicity, dose response, cytotoxicity control for non-replicating M. tuberculosis project (AID 489025); assay type: functional
[9] = target: Glucose-6-phosphate 1-dehydrogenase (Homo sapiens, UniProt P11413); test: human G6PD enzyme inhibitors, dose response, selectivity assay for P. falciparum G6PD inhibitor project, biochemical, fluorescence (AID 504792); assay type: functional
[10] = target: T2, Mannose-6-phosphate isomerase (Homo sapiens, UniProt P34949); test: inhibitors of human PMI, primary screen, biochemical, fluorescence intensity, coupled assay (AID 1209)
T2 sequence (P34949 whole entry): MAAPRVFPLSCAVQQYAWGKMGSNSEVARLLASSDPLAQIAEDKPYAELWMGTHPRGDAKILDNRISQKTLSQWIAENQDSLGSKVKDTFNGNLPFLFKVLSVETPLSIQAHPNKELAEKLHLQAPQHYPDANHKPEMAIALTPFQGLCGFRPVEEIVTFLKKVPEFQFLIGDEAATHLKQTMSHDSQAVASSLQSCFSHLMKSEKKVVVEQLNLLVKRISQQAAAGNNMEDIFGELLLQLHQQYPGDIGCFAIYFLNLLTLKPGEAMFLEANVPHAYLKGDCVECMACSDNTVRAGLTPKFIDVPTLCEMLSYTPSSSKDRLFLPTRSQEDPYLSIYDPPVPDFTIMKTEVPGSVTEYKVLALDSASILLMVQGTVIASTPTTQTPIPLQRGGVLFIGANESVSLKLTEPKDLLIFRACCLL

[11] = target: T2, Mannose-6-phosphate isomerase; test: human PMI inhibitors, high substrate, primary screen, biochemical, fluorescence intensity, high mannose 6-phosphate (AID 1220)
[12] = Vero E6 cell cytotoxicity, dose response, cytotoxicity control for non-replicating M. tuberculosis project, secondary assay (AID 492998); assay type: functional, VeroE6; conditions: Vero C1008
Nonstructural protein 1 = Nonstructural protein 1 (Influenza A virus, UniProt Q194T2); assay type: functional, Influenza A virus (A/California/07/2009(H1N1))
Nonstructural protein 1, sequence (Q194T2 whole entry): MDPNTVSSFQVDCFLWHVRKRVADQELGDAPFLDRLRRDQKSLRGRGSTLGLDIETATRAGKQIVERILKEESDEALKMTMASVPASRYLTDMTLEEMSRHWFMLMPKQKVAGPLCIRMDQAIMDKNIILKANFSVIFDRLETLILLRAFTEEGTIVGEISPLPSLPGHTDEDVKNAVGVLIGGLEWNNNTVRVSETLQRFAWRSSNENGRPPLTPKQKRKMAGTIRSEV

[13] = microbe, parasite or virus in culture; assay type: functional; conditions: Mycobacterium tuberculosis
[14] = target: T3, Microphthalmia-associated transcription factor (Homo sapiens, UniProt O75030); test: TRPM1 promoter luciferase signal decrease, dose response, MITF inhibitor project, cell-based, SK-MEL-5, cherry-picked, set 3 (AID 493073); assay type: functional
T3 sequence (O75030 whole entry): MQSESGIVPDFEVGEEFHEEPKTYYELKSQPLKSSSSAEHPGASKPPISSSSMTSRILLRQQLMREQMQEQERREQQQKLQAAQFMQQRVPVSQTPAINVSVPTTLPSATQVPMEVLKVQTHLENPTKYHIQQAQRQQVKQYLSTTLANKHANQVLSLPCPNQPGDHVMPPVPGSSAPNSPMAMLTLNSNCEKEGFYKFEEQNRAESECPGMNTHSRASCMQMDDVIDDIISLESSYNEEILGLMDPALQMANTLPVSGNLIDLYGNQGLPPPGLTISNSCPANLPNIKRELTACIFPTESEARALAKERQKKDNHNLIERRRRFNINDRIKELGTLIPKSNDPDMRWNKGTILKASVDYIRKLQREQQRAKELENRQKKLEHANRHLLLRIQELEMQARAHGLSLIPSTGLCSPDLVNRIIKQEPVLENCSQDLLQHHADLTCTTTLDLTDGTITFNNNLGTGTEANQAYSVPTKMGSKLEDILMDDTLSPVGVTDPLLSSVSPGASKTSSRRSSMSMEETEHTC

Protein RecA = target: T4, Protein RecA (Mycobacterium tuberculosis, UniProt P9WHJ3); test: Fluorescence Cell-Free Homogeneous Dose Retest to Identify Inhibitors of RecA-Intein Splicing Activity. [Related pubchem assays (depositor defined):AID2097, AID2223, AID489010, AID492950]; assay type: functional
T4 sequence (P9WHJ3 whole entry): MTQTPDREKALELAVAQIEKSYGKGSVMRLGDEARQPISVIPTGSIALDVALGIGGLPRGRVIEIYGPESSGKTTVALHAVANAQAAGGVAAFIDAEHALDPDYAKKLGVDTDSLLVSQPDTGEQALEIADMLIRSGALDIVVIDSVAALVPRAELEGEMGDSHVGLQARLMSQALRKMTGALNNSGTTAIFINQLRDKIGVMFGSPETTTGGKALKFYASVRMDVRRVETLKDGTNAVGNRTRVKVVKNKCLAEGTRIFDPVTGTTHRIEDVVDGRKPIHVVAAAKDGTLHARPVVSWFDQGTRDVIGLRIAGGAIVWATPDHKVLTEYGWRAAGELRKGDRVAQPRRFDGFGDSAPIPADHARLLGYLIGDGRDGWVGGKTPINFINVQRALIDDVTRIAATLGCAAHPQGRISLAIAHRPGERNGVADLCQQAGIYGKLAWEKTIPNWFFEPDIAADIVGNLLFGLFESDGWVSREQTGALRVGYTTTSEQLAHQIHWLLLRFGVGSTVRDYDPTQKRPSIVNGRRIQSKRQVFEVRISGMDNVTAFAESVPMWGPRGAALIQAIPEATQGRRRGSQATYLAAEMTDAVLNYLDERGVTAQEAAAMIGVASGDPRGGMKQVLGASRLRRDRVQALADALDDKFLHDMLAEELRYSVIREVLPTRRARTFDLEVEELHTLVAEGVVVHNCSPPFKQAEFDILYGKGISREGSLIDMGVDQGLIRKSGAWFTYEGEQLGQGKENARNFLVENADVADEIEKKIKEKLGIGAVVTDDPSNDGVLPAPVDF

HEK293 [15] = test: cells; assay type: functional, cell-based; conditions: Homo sapiens
HEK293 [16] = test: cells; assay type: functional, cell-based; conditions: Homo sapiens; remark: listed apart in the source
HEK293 [17] = test: cells; assay type: functional, cell-based; conditions: Homo sapiens; remark: listed apart in the source
HEK293 [18] = test: NOD1 signaling inhibitors, primary screen, cell-based, luminescence, uHTS (AID 1578); assay type: functional; conditions: Homo sapiens
HEK293 [19] = test: NOD2 signaling inhibitors in MDP-stimulated cells, cell-based, uHTS, luminescence (AID 2001); assay type: functional; conditions: Homo sapiens
[20] = target: T5, Replicative DNA helicase DnaB (Mycobacterium tuberculosis, UniProt P9WMR3); test: DnaB intein splicing inhibitors, dose response, biochemical, cell-free fluorescence (AID 449749); assay type: functional
T5 sequence (P9WMR3 whole entry): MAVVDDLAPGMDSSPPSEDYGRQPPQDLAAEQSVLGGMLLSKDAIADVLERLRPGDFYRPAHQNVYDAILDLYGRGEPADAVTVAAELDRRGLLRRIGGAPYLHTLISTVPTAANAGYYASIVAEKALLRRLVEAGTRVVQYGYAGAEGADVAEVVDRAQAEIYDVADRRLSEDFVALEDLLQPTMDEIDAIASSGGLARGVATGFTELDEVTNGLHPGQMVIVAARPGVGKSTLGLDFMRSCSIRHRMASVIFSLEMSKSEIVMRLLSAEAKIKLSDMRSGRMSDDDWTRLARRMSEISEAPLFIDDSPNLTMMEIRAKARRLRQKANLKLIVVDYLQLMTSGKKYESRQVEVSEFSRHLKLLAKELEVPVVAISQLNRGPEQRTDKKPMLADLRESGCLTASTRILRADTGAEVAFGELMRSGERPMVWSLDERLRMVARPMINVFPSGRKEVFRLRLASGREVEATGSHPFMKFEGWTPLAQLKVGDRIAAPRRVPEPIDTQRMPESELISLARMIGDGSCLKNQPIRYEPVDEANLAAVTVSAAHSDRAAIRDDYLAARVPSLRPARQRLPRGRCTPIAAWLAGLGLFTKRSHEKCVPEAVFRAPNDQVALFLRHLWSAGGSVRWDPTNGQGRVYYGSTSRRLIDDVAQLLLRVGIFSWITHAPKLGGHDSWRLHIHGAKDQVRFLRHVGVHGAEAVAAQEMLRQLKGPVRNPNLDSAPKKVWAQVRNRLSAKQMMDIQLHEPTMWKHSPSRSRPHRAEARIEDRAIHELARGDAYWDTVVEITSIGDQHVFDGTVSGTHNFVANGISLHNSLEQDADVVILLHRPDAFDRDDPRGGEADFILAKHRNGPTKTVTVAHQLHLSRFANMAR

[21] = target: Nucleotide-binding oligomerization domain-containing protein 2 (Homo sapiens, UniProt Q9HC29); test: NOD2 signaling inhibitors, cell-based, luminescence, uHTS, HEK293 (AID 1566); assay type: functional

CCCOc1ccc(C2C(C(=O)OC)=CN(CCOC)C=C2C(=O)OC)cc1
IC50 [1]: > 100 µM (inactive)
IC50 [2]: 2.22 µM (active)

CCN1C(NCCCOC(C)C)=N[C@@H](CCc2ccccc2)[C@H](C(=O)NCCCOC(C)C)[C@H]1C
IC50 [3]: 2.91 µM (active)
IC50 [4]: 3.6 µM (active)

Cc1cccc[n+]1C1C(c2ccccc2)C(C#N)=C([C-](C#N)C#N)NC1(O)C1CC1 (centres undefined)
EC50 [5]: > 79.4 µM (inactive)
EC50 [6]: > 79.4 µM (not active)
EC50 [7]: > 79.4 µM (not active)

Cc1cc2nc(-c3ccc(SCc4ccccc4C#N)nc3)[nH]c2cc1C
EC50 [5]: > 79.4 µM (inactive)
EC50 [6]: > 79.4 µM (not active)
EC50 [7]: > 79.4 µM (not active)

Cn1c(-[n+]2c(-c3ccccc3)cc(-c3ccccc3)cc2-c2ccccc2)nc2cc([N+](=O)[O-])ccc21
IC50 [3]: 19.1 µM (active)
IC50 [4]: 22.7 µM (active)

C/[N+]([O-])=C\c1ccc2cccc(O)c2n1
IC50 (cells): 11.6 µM (active)
CC50 [8]: 35 µM (active)
IC50 [9]: > 80 µM (inactive)
IC50 [10]: 16.4 µM (active)
IC50 [11]: 11.8 µM (active)
CC50 [12]: 15.6 µM (active)
IC50 (Nonstructural protein 1): 1.68 µM (active)

COc1ccc(N(CC(=O)NCCSc2ccc(C)cc2)S(=O)(=O)c2ccccc2)c(OC)c1
IC50 [3]: 10.9 µM (active)
IC50 [4]: 9.82 µM (active)

FC(F)(Cl)c1nnc2ccc(Cl)nn12
IC50 (cells): 0.75 µM (active)
CC50 [8]: 10.8 µM (active)
CC50 [13]: 16.5 µM (active)
CC50 [12]: 16.7 µM (active)

O=C(CCl)N1N=C(c2ccco2)CC1c1cccs1 (centres undefined)
AC50 [14]: 7.84 µM (active)
EC50 (Protein RecA): 2.16 µM (active)
IC50 (HEK293 [15]): > 20 µM (inactive)
IC50 (HEK293 [16]): > 20 µM (inactive)
IC50 (HEK293 [17]): 5.32 µM (active)
EC50 (HEK293 [18]): 7.24 µM (active)
IC50 (HEK293 [19]): 4.77 µM (active)
AC50 [20]: 92.5 µM (active)
EC50 [21]: 16.7 µM (active)

Oc1ccc(/N=C/c2ccc(-c3cccs3)s2)cc1
EC50 [5]: 8.81 µM (active)
EC50 [6]: 73 µM (not active)
IC50 [1]: > 100 µM (inactive)
IC50 [2]: 4.2 µM (active)
EC50 [7]: 12 µM (not active)

— ChEMBL document CHEMBL1201862, “PubChem BioAssay data set” (2004)
